From patent US8765949B2, “CCR2 receptor antagonists and uses thereof” (Boehringer Ingelheim International GmbH, priority 2009, dated 2014) come the findings set out here.

This assay has as its target T1, CCR2 (Homo sapiens, UniProt P41597).
T1 construct: Membranes were prepared from THP-1 cells; endogenous in cells; host or cells: THP-1 (human acute monocytic leukaemia cells), membrane preparation
T1 sequence (P41597 1-360 isoform P41597-2): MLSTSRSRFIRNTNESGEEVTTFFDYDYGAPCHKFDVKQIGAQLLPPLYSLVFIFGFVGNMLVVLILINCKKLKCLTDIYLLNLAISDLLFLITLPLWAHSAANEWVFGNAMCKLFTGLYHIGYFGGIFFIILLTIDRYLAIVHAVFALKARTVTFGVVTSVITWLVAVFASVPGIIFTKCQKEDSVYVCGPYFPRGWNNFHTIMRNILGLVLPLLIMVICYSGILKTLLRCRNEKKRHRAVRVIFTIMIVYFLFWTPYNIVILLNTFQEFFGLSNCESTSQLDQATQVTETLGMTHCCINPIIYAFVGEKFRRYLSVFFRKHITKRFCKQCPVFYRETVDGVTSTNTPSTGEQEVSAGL
Nature of the assay: CCR2 receptor membrane binding assay ([125I]MCP-1, THP-1 membranes, SPA beads). Particulars: dissociation constant hKi; THP-1 cell membranes, [125I]MCP-1, bound radioactivity after 8 h. As for the experimental part: The above exemplary substances have been tested for binding to CCR2 using a binding assay as outlined herein below:
THP-1 cells (human acute monocytic leukaemia cells) were cultured under standardized conditions at 37° C. and 5% CO2 in a humidified incubator. THP-1 cells were cultivated in RPMI 1640 medium (Gibco 21875) containing 1% MEM-NEAA (Gibso 11140) 2 mM L-glutamine, 1.5 g/L sodium bicarbonate, 4.5 g/L glucose, 10 mM HEPES and 1.0 mM sodium pyruvate, 90%; 10% fetal calf serum (FCS Gibco 10500-064).
Membranes were prepared from THP-1 cells. THP-1 cells were centrifuged at 300×g at 4° C. for 10 min. The cell pellet was resuspendet in Phosphate Buffer Saline (PBS, including 10 μM Pefabloc and a protease inhibitor mix ‘complete’, Boehringer Mannheim (1 tablet/50 ml)), to a concentration of […]. The membrane preparation was performed by disrupting the cells by nitrogen […] (at 50 bar, for 1 h) in a “Nitrogen Bombe” (Parr Instrument). Cell debris was removed by centrifugation (800×g at 4° C., 1 min). The supernatant was centrifuged at 80000×g, 4° C. for 30 min to sediment the cell membranes. Usually 50 mg of protein (Bradford assay) were yielded from 1×10E9 cells. The membranes were resuspendet in 25 mM HEPES, 25 mM MgCl2, 1 mM CaCl2, 10% Glycerine for storage in aliquots at −80° C. in 25 mM HEPES, 25 mM MgCl2, 1 mM CaCl2, 10% Glycerine and stored at −80° C.
Receptor Membrane Binding Assay:
Perkin Elmer NEX 332 Jod 125 MCP-1, Stock: 2200 Ci/mmol solved in 2000 μl assay buffer, stored at −20° C. THP-1 membrane were adjusted with 25 mM HEPES, pH 7.2; 5 mM MgCl2; 0.5 mM CaCl2; 0.2% BSA assay buffer to a concentration of 2.5 μg/15 μl. Amersham Biosciences PVT-WGA Beads (RPNQ0001) were adjusted with assay buffer to a concentration of 0.24 mg/30 μl. For preparation of the membrane-bead-suspension membranes and beads were incubated for 30 min at RT under rotation (60 rpm) with a ratio of 1:2. Test compounds dissolved in 100% DMSO to a concentration of 10 mM and are further diluted with 100% DMSO to 1 mM. All additional compound dilutions were obtained with assay buffer, final 1% DMSO. Compounds, membrane-bead-suspension and [125I]MCP-1 (ca. 25000 cpm/10 μl) were incubated. Bound radioactivity was determined by scintillation counter after 8 h. Determination of affinity of test compounds (dissociation constant hKi) is calculated by iterative fitting of experimental data using the “easy sys” program, which is based on law of mass action (Schittkowski K. (1994), Numerische Mathematik, Vol. 68, 129-142).
On to `CO[C@@H]1COCC[C@@H]1NC1CCN(C(=O)c2ccnc(NC[C@H]3CCC[C@@H](c4ccccc4)O3)c2C)CC1` [Example 53g], for which the Ki is 16 nM.

In the case of `CO[C@H]1COCC[C@H]1NC1CCN(C(=O)c2cc(NC[C@H]3CCC[C@@H](c4ccc(C)cc4)O3)nc(C(F)(F)F)n2)CC1` [Example 53h], the Ki stood at 2 nM.

Regarding `CO[C@@H]1COCC[C@@H]1NC1CCN(C(=O)c2cc(NC[C@H]3CCC[C@@H](c4ccc(C)cc4)O3)nc(C(F)(F)F)n2)CC1` [Example 53i], the inhibition constant Ki is 2 nM.

Regarding `CO[C@H]1COCC[C@H]1NC1CCN(C(=O)c2nccc(NC[C@H]3CCC[C@@H](c4ccc(C)cc4)O3)c2C)CC1` [Example 53j], the Ki came to 21 nM.

Consider `CO[C@@H]1COCC[C@@H]1NC1CCN(C(=O)c2nccc(NC[C@H]3CCC[C@@H](c4ccc(C)cc4)O3)c2C)CC1` [Example 53k], for which the Ki was determined as 9 nM.

On to `CO[C@@H]1COCC[C@@H]1NC1CCN(C(=O)c2cc(NC[C@H]3CCC[C@@H](c4ccc(OC(F)(F)F)cc4)O3)nc(C(F)(F)F)n2)CC1` [Example 53l], for which the Ki turned out to be 0.5 nM.

Consider `CO[C@H]1COCC[C@H]1NC1CCN(C(=O)c2cc(NC[C@H]3CCC[C@@H](c4ccc(OC(F)(F)F)cc4)O3)nc(C(F)(F)F)n2)CC1` [Example 53m], for which the Ki amounted to 0.3 nM.

As for `COc1nc(NC[C@H]2CCC[C@@H](c3ccc(C)cc3)O2)cc(C(=O)N2CCC(N[C@H]3CCOC[C@H]3OC)CC2)n1` [Example 53n], the Ki turned out to be 5 nM.

As for `COc1nc(NC[C@H]2CCC[C@@H](c3ccc(C(F)(F)F)cc3)O2)cc(C(=O)N2CCC(N[C@@H]3CCOC[C@@H]3OC)CC2)n1` [Example 53o], the Ki turned out to be 1 nM.

Consider `COc1nc(NC[C@H]2CCC[C@@H](c3ccc(C(F)(F)F)cc3)O2)cc(C(=O)N2CCC(N[C@H]3CCOC[C@H]3OC)CC2)n1` [Example 53p], for which the Ki was 0.8 nM.

`COc1nc(NC[C@H]2CCC[C@@H](c3ccc(OC(F)(F)F)cc3)O2)cc(C(=O)N2CCC(N[C@@H]3CCOC[C@@H]3OC)CC2)n1` [Example 53q]: the Ki was 1 nM.

As for `COc1nc(NC[C@H]2CCC[C@@H](c3ccc(OC(F)(F)F)cc3)O2)cc(C(=O)N2CCC(N[C@H]3CCOC[C@H]3OC)CC2)n1` [Example 53r], the Ki was 0.8 nM.

Take `CO[C@H]1COCC[C@H]1NC1CCN(C(=O)c2cc(NC[C@H]3CCC[C@@H](c4ccc(C(F)(F)F)cc4)O3)nc(C(F)(F)F)n2)CC1` [Example 53s]: the Ki was 0.2 nM.

With `CO[C@@H]1COCC[C@@H]1NC1CCN(C(=O)c2cc(NC[C@H]3CCC[C@@H](c4ccc(C(F)(F)F)cc4)O3)nc(C(F)(F)F)n2)CC1` [Example 53t], the Ki was determined as 0.4 nM.

Turning to `Cc1c(NC[C@H]2CCC[C@@H](c3ccc(C(F)(F)F)cc3)O2)ncnc1C(=O)N1CCC(NC2CCOCC2F)CC1` (stereo partly shown) [Example 53u], the Ki was determined as 3 nM.

Consider `Cc1ccc([C@@H]2CCC[C@H](CNc3ncnc(C(=O)N4CCC(NC5CCOCC5F)CC4)c3C)O2)cc1` (stereo partly shown) [Example 53v], for which the Ki was 7 nM.

In the case of `Cc1c(NC[C@H]2CCC[C@@H](c3ccc(OC(F)(F)F)cc3)O2)ncnc1C(=O)N1CCC(NC2CCOCC2F)CC1` (stereo partly shown) [Example 53w], the Ki was 0.6 nM.

On to `Cc1ccc([C@@H]2CCC[C@H](CNc3ncnc(C(=O)N4CCC(N5CCC6(CC5)Cc5ccccc5O6)CC4)c3C)O2)cc1` [Example 53x], for which the Ki was 9 nM.

Consider `Cc1c(NC[C@H]2CCC[C@@H](c3ccc(C(F)(F)F)cc3)O2)ncnc1C(=O)N1CCC(N2CCC3(CC2)Cc2ccccc2O3)CC1` [Example 53y], for which the Ki was 16 nM.

Regarding `COc1nc(NC[C@H]2CCC[C@@H](c3ccc(C)cc3)O2)c(C)c(C(=O)N2CCC(N[C@@H]3CCOC[C@@H]3OC)CC2)n1` [Example 53z], the Ki was 3 nM.

Consider `CO[C@H]1COCC[C@H]1N(C)C1CCN(C(=O)c2ncnc(NC[C@H]3CCC[C@@H](c4ccc(C)cc4)O3)c2C)CC1` [Example 54], for which the Ki amounted to 28 nM.

As to `CO[C@H]1COCC[C@H]1N(C)C1CCN(C(=O)c2ncnc(NC[C@H]3CCC[C@@H](c4ccc(C(F)(F)F)cc4)O3)c2C)CC1` [Example 54a], the Ki stood at 5 nM.

Take `Cc1ccc([C@@H]2CCC[C@H](CNc3ncnc(C(=O)N4CCC(N5CCC(c6cccc(C(=O)O)c6)C5)CC4)c3C)O2)cc1` (stereo partly shown) [Example 55]: the Ki came out at 311 nM.

Turning to `Cc1ccc(C2CCC[C@H](CNc3ncnc(C(=O)N4CCC(N5CCC(c6cccc(C(=O)O)c6)CC5)CC4)c3C)O2)cc1` (stereo partly shown) [Example 56], the Ki came out at 802 nM.

Regarding `Cc1ccc(C2CCC[C@H](CNc3ncnc(C(=O)N4CCC(N5CCCC(c6cccc(C(=O)O)c6)C5)CC4)c3C)O2)cc1` (stereo partly shown) [Example 57], the Ki was determined as 1800 nM.

Regarding `Cc1ccc(C2CCC[C@H](CNc3ncnc(C(=O)N4CCC(N5CCC(c6ccc(C(=O)O)cc6)C5)CC4)c3C)O2)cc1` (stereo partly shown) [Example 58], the Ki amounted to 1130 nM.

Take `Cc1ccc(C2CCC[C@H](CNc3ncnc(C(=O)N4CCC(N5CCC(c6ccccc6C(=O)O)C5)CC4)c3C)O2)cc1` (stereo partly shown) [Example 59]: the Ki amounted to 263 nM.

For `Cc1ccc([C@H]2CCC[C@@H](CNc3ncnc(C(=O)N4CCC(N5CCC6(CC5)CC(C(=O)O)c5ccccc56)CC4)c3C)O2)cc1` (stereo partly shown) [Example 60], the Ki is 733 nM.

The term Ki denotes a measure of affinity in units of concentration, obtained from inhibition or displacement.
